From patent US10358434B2, “2-(3-pyridinyl)-1H-benzimidazole derivative compound and medicament containing same” (NIHON MEDI-PHYSICS CO., LTD., priority 2014, dated 2019)

What was measured:
[1] = tested on: human adrenal gland section expressing aldosterone-producing adenoma; assay: In vitro autoradiography using human adrenal adenoma; assay type: binding; settings: section of FIG. 17(b)
Summary of the method: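 Autoradiography readout: PSL in equal-sized ROIs over adenoma (B2) and normal adrenal cortex (B1), expressed as B2/B1 and decay-corrected using half-life, applied activity and plate contact time. Tissue was surgically excised human adrenal, frozen and cut at 7 μm, incubated 10 min with 5-33 kBq/mL tracer in BSA-containing PBS, then imaged after 16-20 h exposure.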

[2] = In vivo kinetics experiment (radioactivity distribution); design: species or system Wistar male rat; settings: rat i.v., mean ± SD
Summary of the method: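 Tissue radioactivity (% ID/g) and adrenal-to-blood, liver, kidney, small intestine, muscle and fat ratios determined at 10, 30 and 60 min post-dose. Tracers (approximately 1 to 3.7 MBq, saline with 1 w/v % ascorbic acid) injected i.v. into caudal vein of anesthetized 9-week male Wistar rats; organs excised, weighed, counted.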

[3] = Plasma stability evaluation (TLC analysis); assay type: in vitro ADME; settings: 37° C., 60 minutes, TLC analysis
Summary of the method: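 TLC analysis, using each compound's synthesis conditions, judged stability after methanol was added and samples were centrifuged to remove protein. Beforehand, each tracer had spent 60 minutes at 37° C in pooled heparinized normal human plasma.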

Adrenal gland/blood ratio of radioactivity accumulation ([2]; 10 min after administration): 39.83 ± 1.25
Adrenal gland/fat ratio of radioactivity accumulation ([2]; 10 min after administration): 41.90 ± 6.19
Adrenal gland/kidney ratio of radioactivity accumulation ([2]; 10 min after administration): 2.61 ± 0.04
Adrenal gland/liver ratio of radioactivity accumulation ([2]; 10 min after administration): 1.38 ± 0.01
Adrenal gland/muscle ratio of radioactivity accumulation ([2]; 10 min after administration): 36.77 ± 3.87
Adrenal gland/small intestine ratio of radioactivity accumulation ([2]; 10 min after administration): 2.44 ± 0.80
Radioactivity distribution Adrenal gland ([2]; 10 min after administration): 5.67 ± 0.25 % ID/g
Radioactivity distribution Bladder (including urine) ([2]; 10 min after administration): 0.09 ± 0.06 % ID/g
Radioactivity distribution Blood ([2]; 10 min after administration): 0.14 ± 0.00 % ID/g
Radioactivity distribution Fat ([2]; 10 min after administration): 0.14 ± 0.02 % ID/g
Radioactivity distribution Femur ([2]; 10 min after administration): 0.51 ± 0.02 % ID/g
Radioactivity distribution Heart ([2]; 10 min after administration): 0.73 ± 0.06 % ID/g
Radioactivity distribution Kidney ([2]; 10 min after administration): 2.17 ± 0.09 % ID/g
Radioactivity distribution Large intestine ([2]; 10 min after administration): 0.13 ± 0.01 % ID/g
Radioactivity distribution Liver ([2]; 10 min after administration): 4.12 ± 0.23 % ID/g
Radioactivity distribution Lung ([2]; 10 min after administration): 1.94 ± 0.16 % ID/g
Radioactivity distribution Muscle (lower limbs) ([2]; 10 min after administration): 0.16 ± 0.01 % ID/g
Radioactivity distribution Remaining whole body ([2]; 10 min after administration): 0.20 ± 0.01 % ID/g
Radioactivity distribution Small intestine ([2]; 10 min after administration): 2.46 ± 0.61 % ID/g
Radioactivity distribution Spleen ([2]; 10 min after administration): 1.08 ± 0.10 % ID/g
Radioactivity distribution Stomach ([2]; 10 min after administration): 0.80 ± 0.23 % ID/g
Radioactivity distribution Testis ([2]; 10 min after administration): 0.03 ± 0.00 % ID/g
Radioactivity distribution Whole brain ([2]; 10 min after administration): 0.03 ± 0.00 % ID/g
Adrenal gland/blood ratio of radioactivity accumulation ([2]; 30 min after administration): 26.42 ± 7.24
Adrenal gland/fat ratio of radioactivity accumulation ([2]; 30 min after administration): 22.69 ± 9.87
Adrenal gland/kidney ratio of radioactivity accumulation ([2]; 30 min after administration): 2.58 ± 0.55
Adrenal gland/liver ratio of radioactivity accumulation ([2]; 30 min after administration): 1.14 ± 0.36
Adrenal gland/muscle ratio of radioactivity accumulation ([2]; 30 min after administration): 14.44 ± 5.54
Adrenal gland/small intestine ratio of radioactivity accumulation ([2]; 30 min after administration): 0.79 ± 0.34
Radioactivity distribution Adrenal gland ([2]; 30 min after administration): 3.10 ± 1.06 % ID/g
Radioactivity distribution Bladder (including urine) ([2]; 30 min after administration): 0.15 ± 0.01 % ID/g
Radioactivity distribution Blood ([2]; 30 min after administration): 0.12 ± 0.01 % ID/g
Radioactivity distribution Fat ([2]; 30 min after administration): 0.14 ± 0.03 % ID/g
Radioactivity distribution Femur ([2]; 30 min after administration): 0.44 ± 0.04 % ID/g
Radioactivity distribution Heart ([2]; 30 min after administration): 0.52 ± 0.04 % ID/g
Radioactivity distribution Kidney ([2]; 30 min after administration): 1.18 ± 0.14 % ID/g
Radioactivity distribution Large intestine ([2]; 30 min after administration): 0.16 ± 0.01 % ID/g
Radioactivity distribution Liver ([2]; 30 min after administration): 2.72 ± 0.12 % ID/g
Radioactivity distribution Lung ([2]; 30 min after administration): 0.99 ± 0.10 % ID/g
Radioactivity distribution Muscle (lower limbs) ([2]; 30 min after administration): 0.22 ± 0.02 % ID/g
Radioactivity distribution Remaining whole body ([2]; 30 min after administration): 0.21 ± 0.02 % ID/g
Radioactivity distribution Small intestine ([2]; 30 min after administration): 3.99 ± 0.33 % ID/g
Radioactivity distribution Spleen ([2]; 30 min after administration): 0.58 ± 0.09 % ID/g
Radioactivity distribution Stomach ([2]; 30 min after administration): 1.38 ± 0.42 % ID/g
Radioactivity distribution Testis ([2]; 30 min after administration): 0.03 ± 0.00 % ID/g
Radioactivity distribution Whole brain ([2]; 30 min after administration): 0.03 ± 0.00 % ID/g
Adrenal gland/blood ratio of radioactivity accumulation ([2]; 60 min after administration): 20.07 ± 1.94
Adrenal gland/fat ratio of radioactivity accumulation ([2]; 60 min after administration): 10.82 ± 1.23
Adrenal gland/kidney ratio of radioactivity accumulation ([2]; 60 min after administration): 2.05 ± 0.09
Adrenal gland/liver ratio of radioactivity accumulation ([2]; 60 min after administration): 0.88 ± 0.05
Adrenal gland/muscle ratio of radioactivity accumulation ([2]; 60 min after administration): 10.90 ± 0.67
Adrenal gland/small intestine ratio of radioactivity accumulation ([2]; 60 min after administration): 0.26 ± 0.08
Radioactivity distribution Adrenal gland ([2]; 60 min after administration): 1.70 ± 0.21 % ID/g
Radioactivity distribution Bladder (including urine) ([2]; 60 min after administration): 0.13 ± 0.05 % ID/g
Radioactivity distribution Blood ([2]; 60 min after administration): 0.09 ± 0.02 % ID/g
Radioactivity distribution Fat ([2]; 60 min after administration): 0.16 ± 0.02 % ID/g
Radioactivity distribution Femur ([2]; 60 min after administration): 0.36 ± 0.03 % ID/g
Radioactivity distribution Heart ([2]; 60 min after administration): 0.35 ± 0.09 % ID/g
Radioactivity distribution Kidney ([2]; 60 min after administration): 0.83 ± 0.10 % ID/g
Radioactivity distribution Large intestine ([2]; 60 min after administration): 0.19 ± 0.03 % ID/g
Radioactivity distribution Liver ([2]; 60 min after administration): 1.93 ± 0.37 % ID/g
Radioactivity distribution Lung ([2]; 60 min after administration): 0.56 ± 0.15 % ID/g
Radioactivity distribution Muscle (lower limbs) ([2]; 60 min after administration): 0.16 ± 0.01 % ID/g
Radioactivity distribution Remaining whole body ([2]; 60 min after administration): 0.13 ± 0.02 % ID/g
Radioactivity distribution Small intestine ([2]; 60 min after administration): 6.65 ± 0.98 % ID/g
Radioactivity distribution Spleen ([2]; 60 min after administration): 0.34 ± 0.07 % ID/g
Radioactivity distribution Stomach ([2]; 60 min after administration): 2.22 ± 0.73 % ID/g
Radioactivity distribution Testis ([2]; 60 min after administration): 0.03 ± 0.01 % ID/g
Radioactivity distribution Whole brain ([2]; 60 min after administration): 0.02 ± 0.01 % ID/g
Radiochemical purity after incubation in human plasma [3]: 90%
Structure (SMILES): Fc1cc2nc(-c3cncc(Cn4ccnc4)c3)n(Cc3ccc([123I])cc3)c2cc1Cl [[^123I] 605, 6-Chloro-5-fluoro-1-(4-[^123I]iodobenzyl)-2-[5-(1H-imidazol-1-ylmethyl)-3-pyridinyl]-1H-benzimidazole]
B2/B1 accumulation ratio [1]: 0.94
B2 (PSL value, aldosterone-producing adenoma) ([1]; site 71b): 4065
B1 (PSL value, normal adrenal cortex) ([1]; site 72b): 4318
